≈ marks a conversion by molar mass, not a printed value. Where two headings read alike, the source gives them in different places.

We go through seven molecules from patent US4778797A, “Organo-silicon compounds, process for the manufacture of same, and anti-tumor agent comprising the compound” (Sanwa Kagaku Kenkyusho Co., Ltd., priority 1984, dated 1988).

One assay deals with B-16 melanoma. Description: Anti-tumor action to B-16 melanoma. Format: in vivo, BDF1 female mice. As to conditions: oral, tumor weight at 21st day. From the text:
B-16 melanoma (1×10^5 cells) was transplanted under skin of BDF1 female mice (age of about 5 weeks), and each of testing compounds was orally dosed at 1st, 5th and 9th day after the transplantation. At 21st day after the transplantation, the mice were killed to measure a weight of the cancerous tumor and to finally determine an inhibition ratio.

The next assay concerns Colon-38 carcinoma. Description: Anti-tumor action to Colon-38 carcinoma. The assay is classed as in vivo, BDF1 mice. The settings on record: oral, tumor weight at 28th day. The method, then: 0.02 ml of 10(W/V)% cell suspension prepared from a solid cancer cell (Colon-38 carcinoma) were transplanted under skin of BDF1 mice (20-21 g, age of about 5 weeks), and each of testing compounds was orally dosed to the mice at 1st, 5th and 9th day after the transplantation. A major and minor axes of the cancerous tumor were measured at 11th, 14th, 21st, 25th and 28th day after the transplantation to calcurate volume of the tumor in accordance with the following.
At 28th day from the transplantation, the mice were killed and each of the cancerous tumors was extracted to measure its weight and to determine an inhibitation ratio in comparison with a non-treated control group.

The test system of another assay is KB cells. Description: Suppression of KB cell proliferation in vitro. The assay is classed as cell-based. As to conditions: Homo sapiens, 72 h, 3 days exposure, Trypan Blue dye-exclusion, read-out: KB IC50 (50% inhibition density to tumor cell proliferation). The method, then: In a cultivation device (5% CO2, 37° C.), KB cells (1×10^4 cells) were cultivated for 24 hours in a culture tube with 1 ml of Eagle culture medium added 10% ox serum, the used culture medium was thrown away to change with a fresh culture medium (0.9 ml), and then 0.1 ml of a similar culture fluid containing each testing compound prepared by the process as described in the Examples was added to cultivate the same for further 3 days. Thereafter, living cells were dyed with Tripan Blue and measured same through a dye-exclusion method.
A control was treated in a manner similar to the above, except that a culture fluid containing no compound of the invention was added.
50% inhibition density (IC50) to the tumor cell proliferation was decided through the tests between the testing group and the control group to obtain results as shown in following Table 1.

The subject of a further assay is L-1210 leukemia. Description: Anti-tumor action to L-1210 leukemia. The assay is classed as in vivo, BDF1 female mice. As to conditions: Mus musculus, L1210, oral; for ILS at 250 mg/kg/day: 250 mg/kg/day × 3 (1st, 5th, 9th day); for ILS at 500 mg/kg/day: 500 mg/kg/day × 3 (1st, 5th, 9th day). The method, then:
L-1210 leukemia cell (1×10^5 cells) was transplanted in a abdominal cavity of BDF1 female mice (20-21 g, age of about 5 weeks), and each of testing compounds was orally dosed in 250 mg/kg or 500 mg/kg at 1st, 5th and 9th day after the transplantation to check days of life of the mice. [formula]

For another assay, the system named is Lewis lung carcinoma. Description: Anti-tumor action to Lewis lung carcinoma (primary tumor weight and metastasis). The settings on record: Mus musculus, po, 504 h; for inhibition in vivo at 13.5 mg/kg/day: 13.5 mg/kg/day × 10 + Amputation. The assay is classed as in vivo, BDF1 mice. From the text: Lewis lung carcinoma (1×10^5 cells) was transplanted under skin of right ear of BDF1 mice (age of about 5 weeks), and each of testing compounds was orally dosed 10 times from 1st to 10th day after the transplantation. At 21st day after the transplantation, the mice were killed to measure a weight of the primarly tumor and to extract a lung. The lung was fixed in a conventional manner to count a number of metastasis on cancerous cells with use of a stereomicroscope having a low magnification. An anti-tumor action of each compound was expressed with an inhibition in weight of the primarly tumor and an inhibition of the metastasis.

The mark [1] stands for this setting: Mus musculus, B16, 504 h, 125 mg/kg/day × 3, read-out: B-16 melanoma Inhibition ratio.

As to `CC(C)[Si](C)(C)CCCSCCCNC(=O)n1cc(F)c(=O)[nH]c1=O` [Example 11, 5-Fluoro-3,4-dihydro-N-[3-[[3-(isopropyldimethylsilyl)propyl]thio]propyl]-2,4-dioxo-1(2H)-pyrimidinecarboxamide], the “B-16 melanoma Inhibition ratio” value in the assay on B-16 melanoma (125 mg/kg/day × 3) was 32.8%; in the assay with B-16 melanoma (250 mg/kg/day × 3), 45.7%. Moreover, the “colon-38 Inhibition ratio” value in the assay on Colon-38 carcinoma (350 mg/kg/day × 3) came out at 90.3%. Moreover, the IC50 in the assay with KB cells is 13 µg/mL (≈ 33.4 µM). Further, the figures for the ILS at 250 mg/kg/day in the assay with L-1210 leukemia (read-out: L-1210 ILS) and in the assay on L-1210 leukemia (read-out: L-1210 Judgement) were 18% and less than 25%, respectively. Further, the ILS at 500 mg/kg/day was 81% with L-1210 leukemia (read-out: L-1210 ILS) and 50 to 100% in the assay with L-1210 leukemia (read-out: L-1210 Judgement).
Take `CC(C)[Si](C)(C)CCCSCCNC(=O)n1cc(F)c(=O)[nH]c1=O` [Example 12, 5-Fluoro-3,4-dihydro-N-[2-[[3-(isopropyldimethylsilyl)propyl]thio]ethyl]-2,4-dioxo-1(2H)-pyrimidinecarboxamide]: in the assay with B-16 melanoma (setting [1]), the inhibition in vivo at 125 mg/kg/day amounted to 34.2%. Further, the inhibition in vivo at 250 mg/kg/day with B-16 melanoma (Mus musculus, B16, 504 h, 250 mg/kg/day × 3, read-out: B-16 melanoma Inhibition ratio) worked out at 37.9%. Further, the inhibition in vivo at 338 mg/kg/day with Colon-38 carcinoma (Mus musculus, 672 h, 338 mg/kg/day × 3, read-out: colon-38 Inhibition ratio) was found to be 97.3%. Also, the IC50 in the assay on KB cells amounted to 15 µg/mL (≈ 39.9 µM). The figures for the ILS at 250 mg/kg/day in the assay on L-1210 leukemia (read-out: L-1210 ILS) and with L-1210 leukemia (read-out: L-1210 Judgement) were 24% and less than 25%, respectively. The ILS at 500 mg/kg/day in the assay on L-1210 leukemia (read-out: L-1210 ILS) is 70%; with L-1210 leukemia (read-out: L-1210 Judgement) it was 50 to 100%.
With `CC(C)[Si](C)(C)CCSCCCNC(=O)n1cc(F)c(=O)[nH]c1=O` [Example 9, 5-Fluoro-3,4-dihydro-N-[3-[[2-(isopropyldimethylsilyl)ethyl]thio]propyl]-2,4-dioxo-1(2H)-pyrimidinecarboxamide], the results for the “B-16 melanoma Inhibition ratio” value in the assay with B-16 melanoma (125 mg/kg/day × 3) and in the assay on B-16 melanoma (250 mg/kg/day × 3) were 17.6% and 19.4%, respectively. The “colon-38 Inhibition ratio” value with Colon-38 carcinoma (338 mg/kg/day × 3) amounted to 98.4%. In addition, the IC50 with KB cells was 15 µg/mL (≈ 39.9 µM). Further, the ILS at 250 mg/kg/day in the assay with L-1210 leukemia (read-out: L-1210 ILS) is 45%; in the assay with L-1210 leukemia (read-out: L-1210 Judgement), 25 to 50%. For the same molecule, the results for the ILS at 500 mg/kg/day in the assay with L-1210 leukemia (read-out: L-1210 ILS) and in the assay on L-1210 leukemia (read-out: L-1210 Judgement) were 80% and 50 to 100%, respectively.
In the case of `CCCCCCCC[Si](C)(C)CCSCCNC(=O)n1cc(F)c(=O)[nH]c1=O` [Example 4, N-[2-[[2-(Dimethyloctylsilyl)ethyl]thio]ethyl]-5-fluoro-3,4-dihydro-2,4-dioxo-1(2H)-pyrimidinecarboxamide], the “colon-38 Inhibition ratio” value in the assay on Colon-38 carcinoma (345 mg/kg/day × 3) is on record as 80.0%. For the same molecule, the inhibition in vivo at 32 mg/kg/day in the assay on Lewis lung carcinoma (32 mg/kg/day × 10, 21st day, read-out: Inhibition Ratio weight LLC) is 4.6%; with Lewis lung carcinoma (32 mg/kg/day × 10, lung, 21st day, read-out: Inhibition Ratio metastasis), 76.2%. In addition, the inhibition in vivo at 64 mg/kg/day with Lewis lung carcinoma (64 mg/kg/day × 10, 21st day, read-out: Inhibition Ratio weight LLC) was determined as 18%; in the assay on Lewis lung carcinoma (64 mg/kg/day × 10, lung, 21st day, read-out: Inhibition Ratio metastasis), 97.5%. The IC50 in the assay on KB cells came out at 20 µg/mL (≈ 46.3 µM). The figures for the ILS at 250 mg/kg/day with L-1210 leukemia (read-out: L-1210 ILS) and in the assay on L-1210 leukemia (read-out: L-1210 Judgement) were 12% and less than 25%, respectively. Moreover, the ILS at 500 mg/kg/day with L-1210 leukemia (read-out: L-1210 ILS) is 38%; in the assay with L-1210 leukemia (read-out: L-1210 Judgement) it was 25 to 50%.
With `C[Si](CCSCCNC(=O)n1cc(F)c(=O)[nH]c1=O)(c1ccccc1)c1ccccc1` [Example 7, 5-Fluoro-3,4-dihydro-N-[2-[[2-(methyldiphenylsilyl)ethyl]thio]ethyl]-2,4-dioxo-1(2H)-pyrimidinecarboxamide], the inhibition in vivo at 366 mg/kg/day in the assay on Colon-38 carcinoma (Mus musculus, 672 h, 366 mg/kg/day × 3, read-out: colon-38 Inhibition ratio) amounted to 32.2%. Further, the inhibition in vivo at 34 mg/kg/day in the assay on Lewis lung carcinoma (34 mg/kg/day × 10, 21st day, read-out: Inhibition Ratio weight LLC) is 31%; with Lewis lung carcinoma (34 mg/kg/day × 10, lung, 21st day, read-out: Inhibition Ratio metastasis), 67.1%. Also, the inhibition in vivo at 68 mg/kg/day in the assay on Lewis lung carcinoma (68 mg/kg/day × 10, 21st day, read-out: Inhibition Ratio weight LLC) is 25%; in the assay with Lewis lung carcinoma (68 mg/kg/day × 10, lung, 21st day, read-out: Inhibition Ratio metastasis), 87.7%. Also, the IC50 in the assay with KB cells was 4 µg/mL (≈ 8.74 µM). The ILS at 250 mg/kg/day with L-1210 leukemia (read-out: L-1210 ILS) is 11%; in the assay with L-1210 leukemia (read-out: L-1210 Judgement), less than 25%. Also, the ILS at 500 mg/kg/day is 11% with L-1210 leukemia (read-out: L-1210 ILS) and less than 25% in the assay on L-1210 leukemia (read-out: L-1210 Judgement).
Take `CC(C)(C)[Si](C)(C)CCCSCCNC(=O)n1cc(F)c(=O)[nH]c1=O` [Example 13, N-[2-[[3-(t-Butyldimethylsilyl)propyl]thio]ethyl]-5-fluoro-3,4-dihydro-2,4-dioxo-1(2H)-pyrimidinecarboxamide]: the inhibition in vivo at 125 mg/kg/day in the assay with B-16 melanoma (setting [1]) was 38%. The “B-16 melanoma Inhibition ratio” value with B-16 melanoma (250 mg/kg/day × 3) came to 43.1%. Further, the “colon-38 Inhibition ratio” value in the assay on Colon-38 carcinoma (311 mg/kg/day × 3) came to 81.0%. In addition, in the assay with KB cells, the IC50 was 13 µg/mL (≈ 33.4 µM). In addition, the ILS at 250 mg/kg/day is 10% in the assay on L-1210 leukemia (read-out: L-1210 ILS) and less than 25% in the assay with L-1210 leukemia (read-out: L-1210 Judgement). The figures for the ILS at 500 mg/kg/day in the assay on L-1210 leukemia (read-out: L-1210 ILS) and in the assay on L-1210 leukemia (read-out: L-1210 Judgement) were 67% and 50 to 100%, respectively.
As for `CCCC[Si](C)(C)CCSCCNC(=O)n1cc(F)c(=O)[nH]c1=O` [Example 6, N-[2-[[2-(Butyldimethylsilyl)ethyl]thio]ethyl]-5-fluoro-3,4-dihydro-2,4-dioxo-1(2H)-pyrimidinecarboxamide], the inhibition in vivo at 300 mg/kg/day with B-16 melanoma (Mus musculus, B16, 504 h, 300 mg/kg/day × 3, read-out: B-16 melanoma Inhibition ratio) worked out at 53.5%. The “colon-38 Inhibition ratio” value in the assay with Colon-38 carcinoma (300 mg/kg/day × 3) came to 81.2%. Also, the inhibition in vivo at 13.5 mg/kg/day in the assay with Lewis lung carcinoma (21st day, read-out: Inhibition Ratio weight LLC) was found to be 37.3%; in the assay on Lewis lung carcinoma (lung, 21st day, printed in parentheses, read-out: Inhibition Ratio metastasis), 18.3%. The inhibition in vivo at 27 mg/kg/day with Lewis lung carcinoma (27 mg/kg/day × 10 + Amputation, 21st day, read-out: Inhibition Ratio weight LLC) was determined as 30.9%; in the assay on Lewis lung carcinoma (27 mg/kg/day × 10 + Amputation, lung, 21st day, printed in parentheses, read-out: Inhibition Ratio metastasis), 23.1%; in the assay with Lewis lung carcinoma (27 mg/kg/day × 10, 21st day, read-out: Inhibition Ratio weight LLC) it was 39.6%; in the assay on Lewis lung carcinoma (27 mg/kg/day × 10, lung, 21st day, read-out: Inhibition Ratio metastasis), 92.6%. Further, the inhibition in vivo at 54 mg/kg/day with Lewis lung carcinoma (54 mg/kg/day × 10, 21st day, read-out: Inhibition Ratio weight LLC) is 38%; with Lewis lung carcinoma (54 mg/kg/day × 10, lung, 21st day, read-out: Inhibition Ratio metastasis) it was 95.1%. For the same molecule, the IC50 in the assay with KB cells worked out at 12 µg/mL (≈ 32 µM). For the same molecule, the values for the ILS at 250 mg/kg/day in the assay on L-1210 leukemia (read-out: L-1210 ILS) and with L-1210 leukemia (read-out: L-1210 Judgement) were 35% and 25 to 50%, respectively. In addition, the ILS at 500 mg/kg/day in the assay on L-1210 leukemia (read-out: L-1210 ILS) is 73%; in the assay with L-1210 leukemia (read-out: L-1210 Judgement), 50 to 100%.
